Assay results reported in ChEMBL document CHEMBL1201862, “PubChem BioAssay data set” (2004).
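Interpolation was linear, between the two tested concentrations surrounding the appropriate level; five concentrations were tested over 48 hours in 96-well plates. GI50: concentration for 50% inhibition of growth.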 Activity calls are given as the source filed them. Rule as the data show it: active = GI50 up to about 1.1 µM and inactive = higher.

What was measured:
Experiment in all cases: DTP human tumour cell line panel, 48 h
CCRF-CEM = test system: CCRF-CEM
COLO 205 = test system: COLO 205
EKVX = test system: EKVX
HCC 2998 = test system: HCC 2998
HCT-116 = test system: HCT-116
IGROV-1 = test system: IGROV-1
MDA-MB-231 = test system: MDA-MB-231
MDA-MB-435 = test system: MDA-MB-435
Malme-3M = test system: Malme-3M
NCI-H226 = test system: NCI-H226
NCI-H23 = test system: NCI-H23
PC-3 = test system: PC-3
RPMI-8226 = test system: RPMI-8226
RXF 393 = test system: RXF 393
SF-268 = test system: SF-268
SK-OV-3 = test system: SK-OV-3
SNB-19 = test system: SNB-19
SR = test system: SR
T47D = test system: T47D
CAKI-1 = test system: CAKI-1

SMILES	GI50 (CCRF-CEM)	GI50 (COLO 205)	GI50 (EKVX)	GI50 (HCC 2998)	GI50 (HCT-116)	GI50 (IGROV-1)	GI50 (MDA-MB-231)	GI50 (MDA-MB-435)	GI50 (Malme-3M)	GI50 (NCI-H226)	GI50 (NCI-H23)	GI50 (PC-3)	GI50 (RPMI-8226)	GI50 (RXF 393)	GI50 (SF-268)	GI50 (SK-OV-3)	GI50 (SNB-19)	GI50 (SR)	GI50 (T47D)	GI50 (CAKI-1)
c1cc2cc3c4c5c(cc6ccc7cc8cc9c%10c8c8c7c6c5c8c5c%10c(c1C9N1CCOCCOCCOCCOCCOCC1)c2c45)C3 (stereo not given)	> 100 µM (inactive)	> 100 µM (inactive)	> 100 µM (inactive)	> 100 µM (inactive)	> 100 µM (inactive)	> 100 µM (inactive)	> 100 µM (inactive)	> 100 µM (inactive)	> 100 µM (inactive)	> 100 µM (inactive)	> 100 µM (inactive)	> 100 µM (inactive)	> 100 µM (inactive)	> 100 µM (inactive)	> 100 µM (inactive)	> 100 µM (inactive)	> 100 µM (inactive)	> 100 µM (inactive)	> 100 µM (inactive)	–
CCCCNC(=O)c1cc(S(=O)(=O)n2ccnc2O)c(SC)cc1Cl	> 100 µM (inactive)	> 100 µM (inactive)	> 100 µM (inactive)	> 100 µM (inactive)	> 100 µM (inactive)	> 100 µM (inactive)	> 100 µM (inactive)	> 100 µM (inactive)	> 100 µM (inactive)	–	> 100 µM (inactive)	> 100 µM (inactive)	> 100 µM (inactive)	> 100 µM (inactive)	> 10 µM (inactive)	> 100 µM (inactive)	> 100 µM (inactive)	> 100 µM (inactive)	> 100 µM (inactive)	> 100 µM (inactive)
CC1=CC(O)(c2ccccc2)C(N2CCOCC2)N1O (stereo not given)	91.4 µM (inactive)	> 100 µM (inactive)	> 100 µM (inactive)	> 100 µM (inactive)	> 100 µM (inactive)	> 100 µM (inactive)	> 100 µM (inactive)	> 100 µM (inactive)	> 100 µM (inactive)	> 100 µM (inactive)	> 100 µM (inactive)	> 100 µM (inactive)	> 100 µM (inactive)	–	> 100 µM (inactive)	> 100 µM (inactive)	> 100 µM (inactive)	> 100 µM (inactive)	> 100 µM (inactive)	> 100 µM (inactive)
Cc1n[nH]c(=O)n1/N=C/c1cccnc1	> 100 µM (inactive)	> 100 µM (inactive)	> 100 µM (inactive)	> 100 µM (inactive)	> 100 µM (inactive)	> 100 µM (inactive)	> 100 µM (inactive)	> 100 µM (inactive)	> 100 µM (inactive)	> 100 µM (inactive)	> 100 µM (inactive)	> 100 µM (inactive)	> 100 µM (inactive)	–	> 100 µM (inactive)	> 100 µM (inactive)	> 100 µM (inactive)	> 100 µM (inactive)	> 100 µM (inactive)	> 100 µM (inactive)
CC(=O)Oc1cccc2c1C(=O)CCCC2	> 100 µM (inactive)	> 100 µM (inactive)	> 100 µM (inactive)	> 100 µM (inactive)	> 100 µM (inactive)	> 100 µM (inactive)	> 100 µM (inactive)	> 100 µM (inactive)	> 100 µM (inactive)	> 100 µM (inactive)	> 100 µM (inactive)	> 100 µM (inactive)	–	> 100 µM (inactive)	> 100 µM (inactive)	> 100 µM (inactive)	> 100 µM (inactive)	> 100 µM (inactive)	> 100 µM (inactive)	> 100 µM (inactive)
Cc1cc2c(cc1C)NC1=C(O)C(c3c[nH]c4ccc(COc5ccccc5)cc34)OC1=N2 (stereo not given)	–	> 100 µM (inactive)	37.8 µM (inactive)	17.1 µM (inactive)	96.8 µM (inactive)	60.8 µM (inactive)	22.3 µM (inactive)	> 100 µM (inactive)	> 100 µM (inactive)	58.7 µM (inactive)	> 100 µM (inactive)	> 100 µM (inactive)	> 100 µM (inactive)	39.6 µM (inactive)	64.9 µM (inactive)	33.6 µM (inactive)	42.2 µM (inactive)	65.9 µM (inactive)	> 100 µM (inactive)	> 100 µM (inactive)
N#Cc1c(NCCc2ccc(F)cc2)c2ccccc2n2c1nc1ccccc12	> 100 µM (inactive)	71.6 µM (inactive)	10.2 µM (inactive)	40.3 µM (inactive)	19 µM (inactive)	13.4 µM (inactive)	10 µM (inactive)	73.5 µM (inactive)	–	16.7 µM (inactive)	13.1 µM (inactive)	13 µM (inactive)	46.8 µM (inactive)	10.7 µM (inactive)	7.41 µM (inactive)	20.1 µM (inactive)	14 µM (inactive)	> 100 µM (inactive)	22.4 µM (inactive)	9.84 µM (inactive)
O=C1c2ccccc2C(=O)c2sc(Nc3ccccc3C(F)(F)F)nc21	3.79 µM (inactive)	8.89 µM (inactive)	18.2 µM (inactive)	15.5 µM (inactive)	28.6 µM (inactive)	12.5 µM (inactive)	0.264 µM (active)	4.82 µM (inactive)	12.4 µM (inactive)	–	15.7 µM (inactive)	12.2 µM (inactive)	13 µM (inactive)	20.8 µM (inactive)	11 µM (inactive)	16.7 µM (inactive)	21.5 µM (inactive)	4.16 µM (inactive)	12 µM (inactive)	8.77 µM (inactive)
CC1=NN(c2cccc(Cl)c2)C2(SCC(=O)N2c2nc3ccccc3s2)C1=CC=Cc1ccccc1 (stereo not given)	3.4 µM (inactive)	–	54.2 µM (inactive)	32.3 µM (inactive)	22.6 µM (inactive)	31.3 µM (inactive)	27.9 µM (inactive)	31 µM (inactive)	–	53 µM (inactive)	27 µM (inactive)	29.7 µM (inactive)	23 µM (inactive)	25.5 µM (inactive)	31.6 µM (inactive)	27.4 µM (inactive)	–	16.4 µM (inactive)	34.4 µM (inactive)	31.1 µM (inactive)
CCCCCCCC(CC(=O)NC(CO)C(=O)NC(CO)CC(C)C)OC(=O)CC(CCCCCCC)OC(=O)CC(CCCCCCC)OC1OC(C)C(O)C(OC2OC(C)C(OC(C)=O)C(O)C2O)C1O (stereo not given)	3.7 µM (inactive)	2.52 µM (inactive)	14.9 µM (inactive)	5.05 µM (inactive)	4.84 µM (inactive)	10.7 µM (inactive)	7.91 µM (inactive)	6.53 µM (inactive)	10.6 µM (inactive)	16.6 µM (inactive)	9.53 µM (inactive)	4.04 µM (inactive)	–	3.76 µM (inactive)	8.28 µM (inactive)	16.3 µM (inactive)	5.27 µM (inactive)	2.55 µM (inactive)	9.14 µM (inactive)	15.2 µM (inactive)
C/C=C(/C)C(=O)O[C@H]1[C@H]2[C@@H]([C@@H](OC(C)=O)[C@H](C)C(=O)[C@@]34C[C@@H](C)C(=O)[C@]3(/C=C(\C)[C@H]1OC(C)=O)O4)C2(C)C	0.463 µM (active)	2.6 µM (inactive)	3.83 µM (inactive)	5.16 µM (inactive)	3.1 µM (inactive)	4.5 µM (inactive)	3.72 µM (inactive)	2.99 µM (inactive)	–	3.51 µM (inactive)	6.46 µM (inactive)	3.45 µM (inactive)	3.35 µM (inactive)	3.6 µM (inactive)	5.98 µM (inactive)	16 µM (inactive)	4.32 µM (inactive)	2.54 µM (inactive)	2.31 µM (inactive)	4.42 µM (inactive)
O=C1/C(=C/c2cccc([N+](=O)[O-])c2)N=C(c2ccccc2)N1c1nc2c(Cl)cc(Cl)cc2s1	10.4 µM (inactive)	31.8 µM (inactive)	15.5 µM (inactive)	27.5 µM (inactive)	19.5 µM (inactive)	23.2 µM (inactive)	29.4 µM (inactive)	20.8 µM (inactive)	–	–	–	24 µM (inactive)	31.2 µM (inactive)	27.9 µM (inactive)	42.6 µM (inactive)	31.2 µM (inactive)	23.1 µM (inactive)	16.8 µM (inactive)	24.9 µM (inactive)	40.7 µM (inactive)
CC1=NN(C(=O)CSc2nc3ccc(I)cc3c(=O)n2Cc2ccccc2)C(=O)C1	27.9 µM (inactive)	33.5 µM (inactive)	23.6 µM (inactive)	39.1 µM (inactive)	29.9 µM (inactive)	28.8 µM (inactive)	16.9 µM (inactive)	26.4 µM (inactive)	–	43.9 µM (inactive)	16.1 µM (inactive)	17.2 µM (inactive)	35 µM (inactive)	25.9 µM (inactive)	21.4 µM (inactive)	29.1 µM (inactive)	33.7 µM (inactive)	16.9 µM (inactive)	19.1 µM (inactive)	31.8 µM (inactive)
O=C(O)c1cccc2c1/C(=N/Nc1ccccc1)CC2	> 100 µM (inactive)	–	> 100 µM (inactive)	> 100 µM (inactive)	> 100 µM (inactive)	> 100 µM (inactive)	> 100 µM (inactive)	> 100 µM (inactive)	–	19.9 µM (inactive)	> 100 µM (inactive)	> 100 µM (inactive)	> 100 µM (inactive)	> 100 µM (inactive)	> 100 µM (inactive)	> 100 µM (inactive)	–	> 100 µM (inactive)	9.84 µM (inactive)	26.1 µM (inactive)
